Test results from PMC8100298, “Histone deacetylase inhibitor resminostat in combination with sorafenib counteracts platelet-mediated pro-tumoral effects in hepatocellular carcinoma” (Scientific Reports, 2021).
Read-outs that look alike come from different tables or passages of the source.

Key:
Experiment in all cases: Efficacy screening assay
Format in all cases: cell-based
MDAMB436 = conditions: MDAMB436, breast
Method: (§1) The experiment was performed by Oncolead GmbH & Co. KG (Karlsfeld , Germany), based on a standardized screening procedure . Cell lines were purchased directly from the ATCC, NCI and DSMZ cell line c ollections. Cells used for the study had undergone less than 20 passages. To ensure the absence of potential contamination and wrong assignment, all cell lines were tested using a whole genome assay (Agilent, USA). All cell lines were grown as recommended by the suppliers and with addition of 100 U/mL penicillin G and 100 µg/mL; streptomycin. Cell growth and treatments were performed in Nunclon D 96 -well plates (NUNC, Germany). The optimal seeding density for each cell line was determined to ensure exponential growth for the duration of the experiment. All cells growing without anti-cancer agents were sub-conﬂuent by the end of the treatment, as determined by visual inspection.
(§2) After an initial 24 h pre-growth period, the compounds were added. The vehicle concentration […]
(§3) was 0.1% DMSO. After incubation at 37°C for 72 h, the culture medium was aspirated, and the cells were precipitated by the addition of 10% trichloroacetic acid (Sigma-Aldrich, Missouri, US). After overnight incubation at 4°C, the plates were washed three times with deionized water. The precipitates were then stained with SRB (0.4% wt/v sulforhodamine B solution in 1% acetic acid, Sigma-Aldrich, Missouri, US). Afterwards, the plates were washed six times with 1% acetic acid to remove unbound stain. After drying the plates at room temperature, the bound SRB was solubilized with 10 mM Tris base and the optical density was measured at 520 nm using a Victor2 plate reader (Perkin Elmer, Germany). Blank OD values were subtracted from mean OD values for each concentration. The nonlinear curve ﬁtting and EC50 calculations were per formed using XLﬁt and algorithm “205” (ID Business […]
(§4) Multiplicity adjusted p-values with 95% confidence interval was applied. For the invasion assays in Figure 4, one-way ANOVA with multiple comparison testing (Tukey) was performed. Multiplicity adjusted p-values with 95% confidence interval was applied. The adjusted p-values comparing vehicle control without vs. with platelets and compound

J82 = conditions: J82, bladder
Method: as §1, §2, §3, §4

JIMT1 = conditions: JIMT1, breast
Method: as §1, §2, §3, §4

MCF7 = conditions: MCF7, breast
Method: as §1, §2, §3, §4

IMR90 = conditions: Homo sapiens, IMR-90, IMR90, lung, 72 h
Method: as §1, §2, §3, §4

MHHES1 = conditions: MHHES1, bone
Method: as §1, §2, §3, §4

MDAMB468 = conditions: MDAMB468, breast
Method: as §1, §2, §3, §4

IGROV1 = conditions: IGROV1, ovary
Method: as §1, §2, §3, §4

MDAMB435 = conditions: MDAMB435, skin
Method: as §1, §2, §3, §4

MIAPACA2 = conditions: Homo sapiens, MIA PaCa-2, MIAPACA2, pancreas, 72 h
Method: as §1, §2, §3
(§5) For comparison of EC50 values in Figure 1F, one-way ANOVA with multiple comparison testing (Tukey) was performed. Multiplicity adjusted p -values for the EC50 with sorafenib versus resminostat for each cell line and comparison between cell lines for sorafenib are presented (95% confidence interval for significance testing). For comparison of EC50 data in Figure 2B, one-way ANOVA with multiple comparison testing (Tukey) was performed. Multiplicity adjusted p-values with 95% confidence interval was applied. For the invasion assays in Figure 4, one-way ANOVA with multiple comparison testing (Tukey) was performed. Multiplicity adjusted p-values with 95% confidence interval was applied. The adjusted p-values comparing vehicle control without vs. with platelets and compound

OVCAR3 = conditions: OVCAR3, ovary
Method: as §1, §2, §3, §5

CASKI = conditions: 72 h, cervix
Method: as §1, §2, §3, §5

PANC1005 = conditions: PANC1005, pancreas
Method: as §1, §2, §3, §5

HS729 = conditions: HS729, muscle, 72 h
Method: as §1, §2, §3, §5

EFO21 = conditions: EFO21, ovary
Method: as §1, §2, §3, §5

[1] = log of EC50, negative, read-out: log(EC50) (converted)

CN(C)Cc1ccc(S(=O)(=O)n2ccc(/C=C/C(=O)NO)c2)cc1 [resminostat, Resminostat]
EC50 (MDAMB436; Homo sapiens, MDA-MB-436, 72 h, log of EC50, negative, read-out: log(EC50) (converted)): 7.08 µM
EC50 (MDAMB436; Homo sapiens, MDA-MB-436, 72 h, read-out: EC50): 7.15 µM
EC50 (MDAMB436; 72 h, read-out: EC50): 7.15 µM
EC50 (J82; Homo sapiens, J82, 72 h, log of EC50, negative, read-out: log(EC50) (converted)): 5.62 µM
EC50 (J82; Homo sapiens, J82, 72 h, read-out: EC50): 5.68 µM
EC50 (J82; 72 h, read-out: EC50): 5.68 µM
EC50 (JIMT1; Homo sapiens, JIMT-1, 72 h, log of EC50, negative, read-out: log(EC50) (converted)): 3.02 µM
EC50 (JIMT1; Homo sapiens, JIMT-1, 72 h, read-out: EC50): 3.03 µM
EC50 (JIMT1; 72 h, read-out: EC50): 3.03 µM
EC50 (MCF7; Homo sapiens, MCF7, 72 h, log of EC50, negative, read-out: log(EC50) (converted)): 1.7 µM
EC50 (MCF7; Homo sapiens, MCF7, 72 h, read-out: EC50): 1.69 µM
EC50 (MCF7; 72 h, read-out: EC50): 1.69 µM
EC50 (IMR90; [1]): 11 µM
EC50 (IMR90; read-out: EC50): 10.9 µM
EC50 (MHHES1; Homo sapiens, MHH-ES-1, 72 h, log of EC50, negative, read-out: log(EC50) (converted)): 1.38 µM
EC50 (MHHES1; Homo sapiens, MHH-ES-1, 72 h, read-out: EC50): 1.38 µM
EC50 (MHHES1; 72 h, read-out: EC50): 1.38 µM
EC50 (MDAMB468; Homo sapiens, MDA-MB-468, 72 h, log of EC50, negative, read-out: log(EC50) (converted)): 2.29 µM
EC50 (MDAMB468; Homo sapiens, MDA-MB-468, 72 h, read-out: EC50): 2.3 µM
EC50 (MDAMB468; 72 h, read-out: EC50): 2.3 µM
EC50 (IGROV1; Homo sapiens, IGROV-1, 72 h, log of EC50, negative, read-out: log(EC50) (converted)): 1.91 µM
EC50 (IGROV1; Homo sapiens, IGROV-1, 72 h, read-out: EC50): 1.88 µM
EC50 (IGROV1; 72 h, read-out: EC50): 1.88 µM
EC50 (MDAMB435; Homo sapiens, MDA-MB-435, 72 h, log of EC50, negative, read-out: log(EC50) (converted)): 2.09 µM
EC50 (MDAMB435; Homo sapiens, MDA-MB-435, 72 h, read-out: EC50): 2.11 µM
EC50 (MDAMB435; 72 h, read-out: EC50): 2.11 µM
EC50 (MIAPACA2; [1]): 2.69 µM
EC50 (MIAPACA2; read-out: EC50): 2.71 µM
EC50 (OVCAR3; Homo sapiens, OVCAR-3, 72 h, log of EC50, negative, read-out: log(EC50) (converted)): 3.55 µM
EC50 (OVCAR3; Homo sapiens, OVCAR-3, 72 h, read-out: EC50): 3.55 µM
EC50 (OVCAR3; 72 h, read-out: EC50): 3.55 µM
EC50 (CASKI; Homo sapiens, Ca-Ski, log of EC50, negative, read-out: log(EC50) (converted)): 2.63 µM
EC50 (CASKI; Homo sapiens, Ca-Ski, read-out: EC50): 2.63 µM
EC50 (CASKI; read-out: EC50): 2.63 µM
EC50 (PANC1005; Homo sapiens, Panc1005, 72 h, log of EC50, negative, read-out: log(EC50) (converted)): 5.75 µM
EC50 (PANC1005; Homo sapiens, Panc1005, 72 h, read-out: EC50): 5.74 µM
EC50 (PANC1005; 72 h, read-out: EC50): 5.74 µM
EC50 (HS729; [1]): 3.39 µM
EC50 (HS729; read-out: EC50): 3.35 µM
EC50 (EFO21; 72 h, read-out: EC50): 7.17 µM
EC50 (EFO21; Homo sapiens, EFO-21, 72 h, log of EC50, negative, read-out: log(EC50) (converted)): 7.24 µM
EC50 (EFO21; Homo sapiens, EFO-21, 72 h, read-out: EC50): 7.17 µM
